Assay results as given in patent US20050288323A1, “Octahydro-indolizine and quinolizine and hexahydro-pyrrolizine” (priority 2000, published 2005).

Assays:
[1] = target: T1, human histamine H3 receptor (Homo sapiens, UniProt Q9Y5N1); assay: [3H]-N-methylhistamine binding
T1 construct: One microgram of supercoiled H3 receptor cDNA was added to the cells and mixed; expressed in transfected cells; membranes
Description: Thus in the present invention receptor binding was determined using the human histamine H3 receptor (See Lovenberg et al Mol. Pharmacol. 1999, 1107). Screening using the human receptor is particularly important for the identification of new therapies for the treatment of human disease. Conventional binding assays for example are determined using rat synaptosomes (Garbarg et al J. Pharmacol. Exp. Ther. 1992, 263, 304), rat cortical membranes (West et al Mol. Pharmacol. 1990, 610), and guinea pig brain (Korte et al Biochem. Biophys. Res. Commun. 1990, 978). Only limited studies have been performed previously using human tissue but these allude to significant differences in the pharmacology of rodent and primate receptors (West et al Eur. J. Pharmacol. 1999, 233).
Transfection of Cells with Human Histamine Receptor
A 10 cm tissue culture dish with a confluent monolayer of SK-N-MC cells was split two days prior to transfection. Using sterile technique the media was removed and the cells were detached from the dish by the addition of trypsin. One fifth of the cells were then placed onto a new 10 cm dish. Cells were grown in a 37° C. incubator with 5% CO2 in Minimal Essential Media Eagle with 10% Fetal Bovine Serum. After two days cells were approximately 80% confluent. These were removed from the dish with trypsin and pelleted in a clinical centrifuge. The pellet was then re-suspended in 400 μL complete media and transferred to an electroporation cuvette with a 0.4 cm gap between the electrodes (Bio-Rad #165-2088). One microgram of supercoiled H3 receptor cDNA was added to the cells and mixed. The voltage for the electroporation was set at 0.25 kV, the capacitance was set at 960 μF. After electroporation the cells were diluted into 10 mL complete media and plated onto four 10 cm dishes. Because of the variability in the efficiency of electroporation, four different concentrations of cells were plated. The ratios used were; 1:20, 1:10, 1:5, with the remainder of the cells being added to the fourth dish. The cells were allowed to recover for 24 hours before adding the selection media (complete media with 600 μg/mL G418). After 10 days dishes were analyzed for surviving colonies of cells. Dishes with well isolated colonies were used. Cells from individual colonies were isolated and tested. SK-N-MC cells were used because they give efficient coupling for inhibition of adenylate cyclase. The clones that gave the most robust inhibition of adenylate cyclase in response to histamine were used for further study.
[^3H]-N-methylhistamine Binding
Cell pellets from histamine H3 receptor-expressing SK-N-MC cells were homogenized in 20 mM TrisHCl/0.5 mM EDTA. Supernatants from a 800 g spin were collected, recentrifuged at 30,000 g for 30 minutes. Pellets were re-homogenized in 50 mM Tris/5 mM EDTA (pH 7.4). Membranes were incubated with 0.8 nM [^3H]-N-methylhistamine plus/minus test compounds for 45 min at 25° C. and harvested by rapid filtration over GF/C glass fiber filters (pretreated with 0.3% polyethylenimine) followed by four washes with ice cold buffer. Filters were dried, added to 4 mL scintillation cocktail and then counted on a liquid scintillation counter. Non-specific binding was defined with 10 μM histamine. The pKi values were calculated based on a Kd of 800 pM and a ligand concentration ([L]) of 800 pM according to the formula: Ki=(IC50)/(1+([L]/(Kd))

[2] = [3H]-N-methylhistamine 0.8 nM, membranes of H3 receptor-expressing SK-N-MC cells
[3] = Table 1, [3H]-N-methylhistamine binding
[4] = Table 3, [3H]-N-methylhistamine binding
[5] = Table 5, [3H]-N-methylhistamine binding

T1 sequence (Q9Y5N1 whole entry): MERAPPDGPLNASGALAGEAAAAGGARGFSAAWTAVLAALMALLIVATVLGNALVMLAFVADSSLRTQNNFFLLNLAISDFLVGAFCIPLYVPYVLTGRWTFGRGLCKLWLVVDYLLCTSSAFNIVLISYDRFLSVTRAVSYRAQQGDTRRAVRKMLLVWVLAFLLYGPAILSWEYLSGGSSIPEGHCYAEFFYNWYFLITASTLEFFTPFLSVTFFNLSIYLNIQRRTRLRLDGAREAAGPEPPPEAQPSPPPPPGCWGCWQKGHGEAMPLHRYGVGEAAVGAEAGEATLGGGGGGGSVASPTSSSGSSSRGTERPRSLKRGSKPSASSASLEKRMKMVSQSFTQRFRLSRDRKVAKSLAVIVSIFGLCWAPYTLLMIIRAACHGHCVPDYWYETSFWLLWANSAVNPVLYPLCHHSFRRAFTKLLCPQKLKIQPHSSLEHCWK

Ki [1, 2] [nM] | Molecule | further results
– | Brc1cccc([C@H]2CC[C@H]3CCCCN32)c1 (racemic) | melting point: 195 to 198 °C
368 | O=C(c1ccc(Cl)cc1)c1ccc([C@H]2CC[C@H]3CCCCN32)cc1 (racemic) [Example 124, trans-3-{4-[(4-Chlorophenyl)methan-1-oxo]phenyl}octahydroindolizine] | –
– | c1ccc(Oc2ccc([C@@H]3CC[C@H]4CCCCN43)cc2)cc1 (racemic) [Example 12] | Ki [1, 3]: 600 nM
1780 | CCN(c1ccc([C@H]2CC[C@H]3CCCCN32)cc1)C1CCN(S(C)(=O)=O)CC1 (racemic) [Example 104, trans-3-[4-(N-Ethyl-N-4-N-methylsufonylpiperidinylamino)phenyl]octahydroindolizine] | –
173 | c1csc(-c2ccc([C@H]3CC[C@H]4CCCCN43)cc2)c1 (racemic) [Example 50, 3-(4-Thiophen-2-yl-phenyl)-octahydro-indolizine] | –
– | c1cc(-c2ccc([C@H]3CC[C@H]4CCCCN43)cc2)cs1 (racemic) [Example 49] | Ki [1, 4]: 503 nM
– | O/N=C\c1ccsc1-c1ccc([C@H]2CC[C@H]3CCCCN32)cc1 (racemic) [Example 54, tran-3-[4-(3-hydroxyiminomethylthienyl)phenyl]octahydroindolizine] | Ki ([1]; [3H]-N-methylhistamine binding, value printed under example heading without unit): 1480 nM
128 | CS(=O)(=O)N(c1cccc(COc2ccc([C@H]3CC[C@H]4CCCCN43)cc2)c1)S(C)(=O)=O (racemic) [Example 82, trans-3-[4-(3-bis-Methansulfonaminobenzyloxy)phenyl]octahydroindolizine] | –
75 | Nc1ccc(Sc2ccc([C@@H]3CCC[C@@H]4CCCN43)cc2)cc1 (racemic) [Example 39, 5-(4-(4-Aminophenylthio)phenyl)octahydroindolizine] | –
9.5 | CN(C)CCCOc1ccc([C@H]2CC[C@H]3CCCCN32)cc1 (racemic) [Example 17, Dimethyl-{3-[4-(octahydro-indolizin-3-yl)-phenoxy]-propyl}-amine] | Ki [1, 3]: 10 nM
– | c1ccc(-c2ccc([C@H]3CC[C@H]4CCCCN43)cc2)cc1 (racemic) [Example 3] | Ki [1, 3]: 1000 nM
– | c1ccc(Oc2ccc([C@H]3CC[C@H]4CCCCN43)cc2)cc1 (racemic) [Example 11] | Ki [1, 3]: 400 nM
0.2 | c1cc(C2CC3CCCCN3C2)ccc1OCCCN1CCCCC1 (stereo not drawn) [Example 69, syn-2-[4-(3-Piperidinylpropanoxy)phenyl]octahydroindolizine] | –
320 | CS(=O)(=O)Nc1cccc(-c2ccc([C@H]3CC[C@H]4CCCCN43)cc2)c1 [Example 55, tran-3-[4-(3-Methylsulfonylaminophenyl)phenyl]octahydroindolizine] | –
517 | CC(C)(C)OC(=O)N1CCC(Nc2ccc([C@H]3CC[C@H]4CCCCN43)cc2)CC1 (racemic) [Example 100] | –
243 | CS(=O)(=O)N1CCC(Nc2ccc([C@H]3CC[C@H]4CCCCN43)cc2)CC1 (racemic) [Example 102, trans-3-[4-(N-Methylsulfonyl-4-aminopiperidine)phenyl]octahydroindolizine] | –
1560 | O=[N+]([O-])c1ccc(Oc2ccc([C@H]3CC[C@H]4CCCCN43)cc2)cc1 (racemic) [Example 77, trans-3-[4-(4-Nitrophenoxy)phenyl]octahydroindolizine] | –
– | c1cnc(Sc2ccc([C@H]3CC[C@H]4CCCCN43)cc2)nc1 (racemic) [Example 32] | Ki ([1]; Table 2, [3H]-N-methylhistamine binding): 650 nM
0.06 | c1cc([C@@H]2CC[C@@H]3CCCCN32)ccc1OCCCN1CCCCC1 [Example 94, (S, S)-3-(4-(3-Piperidinylpropoxy)phenyl)octahydroindolizine] | –
– | Brc1ccc([C@@H]2CC[C@H]3CCCCN32)cc1 (racemic) [Example 2] | Ki [1, 3]: 1000 nM
– | c1cc(CNc2ccc([C@H]3CC[C@H]4CCCCN43)cc2)cs1 (racemic) [Example 129] | Ki [1, 5]: 648 nM
327 | C=CC(=O)Nc1ccc([C@@H]2CC[C@@H]3CCCCN32)cc1 (relative stereo) [Example 107, N-[4-(trans-Octahydro-3-indolizinyl)phenyl]propenamide] | –
80 | N=C(N)N1CCCCC1CCOc1ccc([C@H]2CC[C@H]3CCCCN32)cc1 (mixture of isomers) [Example 90, trans-3-{4-[2,2′-(N-Amidinopiperidinyl)ethoxy]phenyl}octahydroindolizine] | –
1.8 | C(#CCN1CCCCC1)COc1ccc([C@H]2CC[C@H]3CCCCN32)cc1 (relative stereo) [Example 84, trans-3-[4-(3-Piperidinylmethylpropargyloxy)phenyl]octahydroindolizine] | –
7 | CN1CCCCC1CCOc1ccc([C@H]2CC[C@H]3CCCCN32)cc1 (mixture of isomers) [Example 87, trans-3-{4-[2,2′-(N-Methylpiperidinyl)ethoxy]phenyl}octahydroindolizine] | –
46 | CS(=O)(=O)Nc1ccc(Oc2ccc([C@H]3CC[C@H]4CCCCN43)cc2)cc1 (racemic) [Example 79, trans-3-[4-(4-Methansulfonaminophenoxy)phenyl]octahydroindolizine] | –
– | c1ccc(CN(Cc2ccccc2)c2ccc([C@H]3CC[C@H]4CCCCN43)cc2)cc1 (racemic) [Example 135] | Ki [1, 5]: 3950 nM
1220 | FC(F)(F)Oc1ccc(-c2ccc([C@H]3CC[C@H]4CCCCN43)cc2)cc1 (relative stereo) [Example 47, trans-3-[4-(4-Trifluromethoxyphenyl)phenyl]octahydroindolizine] | –
– | O=Cc1ccc(-c2ccc([C@H]3CC[C@H]4CCCCN43)cc2)cc1 (racemic) [Example 52] | Ki [1, 4]: 221 nM

Molecule | Ki [1, 2] [nM] | further results
N-Methyl-N-[4-(trans-Octahydro-3-indolizinyl)phenyl]-3-piperidinylpropenamide [Example 109] | 1 | –
CN(c1ccc([C@@H]2CC[C@@H]3CCCCN32)cc1)S(=O)(=O)C1CCCNC1 (relative stereo) [Example 118, trans-3-[4-(3-Piperidylsulfonyl-N-methylamino)phenyl]octahydroindolizine] | 61 | –
COc1ccccc1[C@H]1C[C@@H]2CCCCN2C1 (relative stereo) [Example 70, anti-2-(2-Methoxyphenyl)octahydroindolizine] | 792 | –
Nc1ccc([C@@H]2CC[C@@H]3CCCCN32)cc1 (relative stereo) [Example 95, trans-3-(4-Aminophenyl)octahydroindolizine] | 32 | –
O=C(CCCN1CCCCC1)Nc1ccc([C@@H]2CC[C@@H]3CCCCN32)cc1 (relative stereo) [Example 111, trans-3-[4-(N-4-Piperidylbutanamido)phenyl]octahydroindolizine] | 3 | –
O=Cc1ccc([C@H]2CC[C@H]3CCCCN32)cc1 (racemic) [trans-3-(4-Formylphenyl)octahydroindolizine] | 587 | –
c1cc(Sc2ccc(C3CCC4CCCCN43)cc2)ccn1 (stereo not shown) [Example 136, Octahydro-3-[4-(4-pyridinylthio)phenyl]indolizine] | 7.5 | –
